Assay results as given in PubChem BioAssay AID1083 (University of Pittsburgh Molecular Library Screening Center, 2008).
“And” between values parts separate entries of the source, which are not always exact repeats. Identical values can stand only once. The source made the active and inactive calls. The rule behind the calls is not given here.

Target: Serine/threonine-protein kinase PLK1 (Homo sapiens) (UniProt P53350)
Assay: PLK1 polo-box domain peptide-binding inhibitors, SAR follow-up, biochemical, fluorescence polarization, purchased analogs, concentration response (AID 1083)
Conditions: Plk1 PBD peptide binding

Sequence of Serine/threonine-protein kinase PLK1 (Homo sapiens) (P53350 whole entry, looked up, the tested form may be a part): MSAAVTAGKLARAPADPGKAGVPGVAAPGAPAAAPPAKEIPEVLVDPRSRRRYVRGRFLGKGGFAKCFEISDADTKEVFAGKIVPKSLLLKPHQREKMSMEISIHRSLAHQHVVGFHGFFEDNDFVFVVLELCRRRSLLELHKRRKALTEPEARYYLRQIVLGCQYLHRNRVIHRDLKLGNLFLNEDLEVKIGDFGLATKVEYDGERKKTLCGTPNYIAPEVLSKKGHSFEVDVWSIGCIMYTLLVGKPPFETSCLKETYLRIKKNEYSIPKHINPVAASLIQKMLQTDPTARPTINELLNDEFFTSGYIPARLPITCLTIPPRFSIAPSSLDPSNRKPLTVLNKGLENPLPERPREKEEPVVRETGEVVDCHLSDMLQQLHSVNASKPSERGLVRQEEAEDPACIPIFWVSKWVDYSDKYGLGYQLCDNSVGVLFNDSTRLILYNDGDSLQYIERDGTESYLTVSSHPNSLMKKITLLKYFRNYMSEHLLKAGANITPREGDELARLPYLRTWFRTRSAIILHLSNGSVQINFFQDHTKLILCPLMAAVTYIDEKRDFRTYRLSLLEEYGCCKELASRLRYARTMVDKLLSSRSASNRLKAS

Structure (SMILES)	IC50
CCOC(=O)c1ccc(NC(=O)C2CC(=O)N=C(N)S2)cc1 (stereo not drawn)	> 50 µM (inactive)
CCCCOC(=O)c1ccc(N=Cc2c(O)[nH]c(=O)[nH]c2=O)cc1	> 50 µM (inactive)
Cn1c(O)c(C(=O)c2ccccc2Cl)c(=O)n(C)c1=O	> 50 µM (inactive)
CCn1nc(-c2ccccc2Br)nc2c(=O)n(C)c(=O)nc1-2	1.35 µM
CC(=O)N(/N=C1\Sc2ccccc2C1=O)c1cccc(Br)c1	20.9 µM
CCOC(=O)c1ccc(N=Cc2c(O)n(C)c(=O)n(C)c2=O)cc1	> 50 µM (inactive)
CCCCCC(=O)N(CN1C(=O)c2ccccc2C1=O)c1ccc(OCc2ccccc2)cc1	> 50 µM (inactive)
COc1ccc(C(=O)COC(=O)c2ccc(NC(=O)c3ccccc3)cc2)cc1	> 50 µM (inactive)
CC(=O)N(CN1C(=O)c2ccccc2C1=O)c1cc(Br)ccc1C	> 50 µM (inactive)
CCOc1ccc(-c2nc3c(=O)n(C)c(=O)nc-3n(C)n2)cc1OC	0.022 µM
COc1ccccc1N(CN1C(=O)c2ccc([N+](=O)[O-])cc2C1=O)C(C)=O	> 50 µM (inactive)
CCOC(=O)c1ccc(NC(=O)c2ccc(NC(=O)CC)cc2)cc1	> 50 µM (inactive)
CCOC(=O)c1ccc(NC(=O)c2cc3ccccc3oc2=O)cc1	> 50 µM (inactive)
COc1cc(C=C2C(=O)NC(=O)NC2=O)cc(Cl)c1O	> 50 µM (inactive)
CCOC(=O)c1ccc(NC(=O)C23CC4CC(CC(C4)C2)C3)cc1	> 50 µM (inactive)
O=C1NC(=O)C(=Cc2c3ccccc3cc3ccccc23)C(=O)N1	> 50 µM (inactive)
CCOC(=O)c1ccc(N=Cc2c(O)[nH]c(=O)[nH]c2=O)cc1	> 50 µM (inactive)
CC(=O)N(/N=C1\Sc2ccccc2C1=O)c1ccc(Br)cc1	45.8 µM
CCOC(=O)c1ccc(N=Cc2c(O)n(CC)c(=O)[nH]c2=O)cc1	> 50 µM (inactive)
CCOc1cc(-c2nnc3[nH]c(=O)n(C)c(=O)c3n2)ccc1OC(C)C	28.9 µM
CCOC(=O)c1ccc(NC(=O)C2Oc3ccccc3OC2C)cc1 (stereo not drawn)	> 50 µM (inactive)
CCOC(=O)c1ccc(NC(=O)C2C3C=CC(C3)C2C(=O)O)cc1 (stereo not drawn)	> 50 µM (inactive)
O=C(COC(=O)c1ccc(NC(=O)c2ccc([N+](=O)[O-])cc2)cc1)c1ccccc1	> 50 µM (inactive)
COc1ccccc1N(/N=C1\Sc2ccccc2C1=O)C(C)=O	13.3 µM
Cn1nc(-c2ccc(C(F)(F)F)cc2)nc2c(=O)n(C)c(=O)nc1-2	0.21 µM and 0.851 µM

Structure (SMILES)	IC50
CCN(CC)CCOC(=O)c1ccc(N=Cc2c(O)n(C)c(=O)[nH]c2=O)cc1	> 50 µM (inactive)
CCOC(=O)c1ccc(NC(=O)C2OCCc3ccccc32)cc1 (stereo not drawn)	> 50 µM (inactive)
CC(OC(=O)c1ccc(NC(=O)c2ccc(Br)cc2)cc1)C(=O)c1ccccc1 (stereo not drawn)	> 50 µM (inactive)
CCCCCCC(=O)N(CN1C(=O)c2ccccc2C1=O)c1ccccc1	> 50 µM (inactive)
CCOC(=O)N1CCN(c2cc3nccnc3cc2F)CC1	> 50 µM (inactive)
CCn1nc(-c2ccccc2)nc2c(=O)n(C)c(=O)nc1-2	0.524 µM
CC(=O)N(/N=C1\Sc2ccccc2C1=O)c1ccccc1Cl	> 50 µM (inactive)
CC(=O)N(CN1C(=O)c2cccc([N+](=O)[O-])c2C1=O)c1ccc2c(c1)oc1ccccc12	> 50 µM (inactive)
CC(=O)N(/C=C1\Sc2ccccc2C1=O)c1ccc(C)c(C)c1	> 50 µM (inactive)
COC(=O)c1ccc(NC(=O)c2cc(-c3ccc(C)o3)nc3ccccc23)cc1	> 50 µM (inactive)
CCOC(=O)c1ccc(N=Cc2c(O)n(Cc3cccs3)c(=O)[nH]c2=O)cc1	> 50 µM (inactive)
CCOC(=O)c1ccc(NC(=O)C2COc3ccccc3O2)cc1 (stereo not drawn)	> 50 µM (inactive)
CCn1nc(-c2ccc([N+](=O)[O-])cc2)nc2c(=O)n(C)c(=O)nc1-2	0.571 µM
CCOC(=O)c1ccc(N=Cc2c(O)n(-c3cccc(OC)c3)c(=O)[nH]c2=O)cc1	> 50 µM (inactive)
CC(=O)N(CN1C(=O)c2ccccc2C1=O)c1cccc(C)c1	> 50 µM (inactive)
CC(=O)N(/N=C1\Sc2ccccc2C1=O)c1ccccc1I	> 50 µM (inactive)
CCCCCCC(=O)N(CN1C(=O)c2ccccc2C1=O)c1ccccc1OC	> 50 µM (inactive)
Cn1nc(-c2ccccc2)nc2c(=O)n(C)c(=O)nc1-2	1.45 µM
CC(=O)N(CN1C(=O)c2ccccc2C1=O)c1ccccc1Cl	> 50 µM (inactive)
CC(=O)Oc1ccccc1N(/C=C1/Sc2ccccc2C1=O)C(C)=O	> 50 µM (inactive)
COc1cc(Br)cc(C=C2C(=O)NC(=O)NC2=O)c1O	> 50 µM (inactive)
CC1CN(c2cc3nccnc3cc2F)CC(C)O1 (stereo not drawn)	> 50 µM (inactive)
Cc1ccc(-c2nnc3[nH]c(=O)n(C)c(=O)c3n2)cc1	> 50 µM (inactive)
COc1ccccc1N(CN1C(=O)c2ccccc2C1=O)C(C)=O	> 50 µM (inactive)
CC(=O)N(CN1C(=O)c2ccccc2C1=O)c1ccc(Cl)c(Cl)c1	> 50 µM (inactive)

Structure (SMILES)	IC50
CC(=O)N(CN1C(=O)c2ccccc2C1=O)c1ccc2ccccc2c1	> 50 µM (inactive)
COc1cc(C=C2C(=O)NC(=O)NC2=O)ccc1OCc1ccc(Cl)cc1Cl	> 50 µM (inactive)
O=c1cc[nH]c2cc(N3CCOCC3)c(F)cc12	> 50 µM (inactive)
Cc1ccc(N(CN2C(=O)c3ccc([N+](=O)[O-])cc3C2=O)C(=O)C(c2ccccc2)c2ccccc2)cc1	> 50 µM (inactive)
CCOC(=O)c1ccc(NC(=O)C2C3C=CC(C3)C2(C)C(=O)O)cc1 (stereo not drawn)	> 50 µM (inactive)
COc1ccc(N(CN2C(=O)c3ccccc3C2=O)C(C)=O)cc1	> 50 µM (inactive)
COc1ccc(N(CN2C(=O)c3ccccc3C2=O)C(=O)C(F)(F)F)cc1	> 50 µM (inactive)
CCN(CC)CCOC(=O)c1ccc(NC(=O)c2cc(OC)c(OC)cc2OC)cc1	> 50 µM (inactive)
CCOC(=O)c1ccc(NC(=O)c2ccc3nc(N)sc3c2)cc1	> 50 µM (inactive)
CCOC(=O)c1ccc(NC(=O)C2CCC(C(C)(C)C)CC2)cc1 (stereo not drawn)	> 50 µM (inactive)
CC(=O)N(/N=C1\Sc2ccccc2C1=O)c1ccccc1	20.5 µM
CCCCCC(=O)N(CN1C(=O)c2ccccc2C1=O)c1cccc(C(=O)O)c1	> 50 µM (inactive)
COc1ccc(N(/C=C2\Sc3ccccc3C2=O)C(C)=O)cc1	> 50 µM (inactive)
Cc1cc(-n2c(C)cc(C=C3C(=O)NC(=O)NC3=O)c2C)ccc1I	45.2 µM
CC(=O)N(CN1C(=O)c2cc(Cl)c(Cl)cc2C1=O)c1ccc(C)c(Cl)c1	> 50 µM (inactive)
CCCCOC(=O)c1ccc(NC(=O)c2cc(OCC)c(OCC)c(OCC)c2)cc1	> 50 µM (inactive)
CC(=O)N(CN1C(=O)c2ccccc2C1=O)c1ccc(I)cc1	> 50 µM (inactive)
CC(=O)N(CN1C(=O)c2ccccc2C1=O)c1cccc(F)c1	> 50 µM (inactive)
CCOC(=O)c1ccc(NC(=O)c2cc(C)cc(C)c2)cc1	> 50 µM (inactive)
CC(=O)N(CN1C(=O)c2ccccc2C1=O)c1ccc(F)cc1	> 50 µM (inactive)
CC(=O)N(/C=C1\Sc2ccccc2C1=O)c1cc(C(F)(F)F)ccc1Cl	> 50 µM (inactive)
COc1cc(C=C2C(=O)NC(=O)NC2=O)ccc1OCc1c(C)no[n+]1[O-]	> 50 µM (inactive)
COc1ccc(-c2nnc3[nH]c(=O)n(C)c(=O)c3n2)cc1	> 50 µM (inactive)
Cn1c(=O)[nH]c2nnc(-c3ccc(C(F)(F)F)cc3)nc2c1=O	> 50 µM (inactive)
O=c1[nH]c2c(c(O)c1-c1ccccc1)c(=O)n(-c1ccccc1)c(=O)n2-c1ccccc1	> 50 µM (inactive)

Structure (SMILES)	IC50
CCN(CC)CCOC(=O)c1ccc(N=Cc2c(O)n(Cc3ccccc3)c(=O)[nH]c2=O)cc1	> 50 µM (inactive)
Cn1c(=O)[nH]c2nnc(-c3ccc([N+](=O)[O-])cc3)nc2c1=O	> 50 µM (inactive)
Cn1nc(-c2ccc([N+](=O)[O-])cc2)nc2c(=O)n(C)c(=O)nc1-2	0.375 µM
COc1ccc(N(CN2C(=O)c3cc(Cl)c(Cl)cc3C2=O)C(C)=O)cc1	> 50 µM (inactive)
CCCCCCC(=O)N(CN1C(=O)c2ccccc2C1=O)c1ccc(OCc2ccccc2)cc1	> 50 µM (inactive)
CCn1nc(-c2ccc(OC)cc2)nc2c(=O)n(C)c(=O)nc1-2	0.912 µM
CCCOC(=O)c1ccc(NC(=O)c2ccc(C)c(I)c2)cc1	> 50 µM (inactive)
CCN(CC)CCOC(=O)c1ccc(N=Cc2c(O)n(-c3c(C)cc(C)cc3C)c(=O)[nH]c2=O)cc1	> 50 µM (inactive)
CCOC(=O)c1ccc(N=Cc2c(O)n(Cc3ccccc3)c(=O)[nH]c2=O)cc1	> 50 µM (inactive)
CC(=O)N(CN1C(=O)c2ccccc2C1=O)c1ccc(Oc2ccccc2)cc1	> 50 µM (inactive)
O=C(COC(=O)c1ccc(NC(=O)c2ccc(Cl)cc2)cc1)c1ccccc1	> 50 µM (inactive)
CCOC(=O)c1ccc(NC(=O)c2cc(=O)[nH]c3ccccc23)cc1	> 50 µM (inactive)
CC(=O)N(CN1C(=O)c2ccccc2C1=O)c1ccccc1C	> 50 µM (inactive)
Cc1ccc(C(=O)CN2C=CC(=C(O)NCc3ccccc3)C=C2)cc1	> 50 µM (inactive)
CCOC(=O)c1ccc(NC(=O)C2C3CCC(C3)C2C(=O)O)cc1 (stereo not drawn)	> 50 µM (inactive)
Cc1ccccc1-c1nnc2[nH]c(=O)n(C)c(=O)c2n1	> 50 µM (inactive)
CCOC(=O)c1ccc(N=Cc2c(O)n(C3CCCCC3)c(=O)n(C3CCCCC3)c2=O)cc1	> 50 µM (inactive)
CCCOC(=O)c1ccc(NC(=O)c2c(F)c(F)c(F)c(F)c2F)cc1	> 50 µM (inactive)
CC(=O)N(/N=C1\Sc2ccccc2C1=O)c1ccccc1[N+](=O)[O-]	18.7 µM
CC(=O)Oc1c(Cl)c(N2CCOCC2)c(OC(C)=O)c2ccccc12	> 50 µM (inactive)
CCn1nc(-c2ccc(C(F)(F)F)cc2)nc2c(=O)n(C)c(=O)nc1-2	0.552 µM
Cn1c(=O)c2nc(-c3ccccc3)c(=O)[nH]c2n(C)c1=O	> 50 µM (inactive)
CC(=O)N(/N=C1\Sc2ccccc2C1=O)c1ccccc1C	37.4 µM
